Experimental data taken from ChEMBL document CHEMBL1201862, “PubChem BioAssay data set” (2004).
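Cultured in 96-well plates, cells were exposed to test compound for 48 hours across five concentrations. At the GI50, growth is halved.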 The source made the active and inactive calls. Cut-off read from the data, not from the text of the source: active = GI50 up to about 1.1 µM and inactive = higher.

What was measured:
Assay in all cases: inhibition of tumour cell growth, NCI panel, 48 h
OVCAR-8 = system: OVCAR-8
SR = system: SR
IGROV-1 = system: IGROV-1
CAKI-1 = system: CAKI-1
DU-145 = system: DU-145
ACHN = system: ACHN
LOX IMVI = system: LOX IMVI
A549 = system: A549
MDA-N = system: MDA-N
Hs-578T = system: Hs-578T
MDA-MB-435 = system: MDA-MB-435
MOLT-4 = system: MOLT-4
SF-539 = system: SF-539
U-251 = system: U-251
CCRF-CEM = system: CCRF-CEM
HCT-15 = system: HCT-15
UACC-257 = system: UACC-257
NCI-H460 = system: NCI-H460
SNB-75 = system: SNB-75
A498 = system: A498

Structure (SMILES) | GI50 (OVCAR-8) | GI50 (SR) | GI50 (IGROV-1) | GI50 (CAKI-1) | GI50 (DU-145) | GI50 (ACHN) | GI50 (LOX IMVI) | GI50 (A549) | GI50 (MDA-N) | GI50 (Hs-578T) | GI50 (MDA-MB-435) | GI50 (MOLT-4) | GI50 (SF-539) | GI50 (U-251) | GI50 (CCRF-CEM) | GI50 (HCT-15) [µM] | GI50 (UACC-257) | GI50 (NCI-H460) | GI50 (SNB-75) | GI50 (A498)
COc1cc(-c2nc3ccccn3c2/N=C/c2cc(Br)cc(Br)c2O)ccc1O | 23.4 µM (inactive) | 25.9 µM (inactive) | 22.9 µM (inactive) | 29.2 µM (inactive) | 27.6 µM (inactive) | 48.8 µM (inactive) | 24 µM (inactive) | > 100 µM (inactive) | 22.4 µM (inactive) | 26.1 µM (inactive) | 22.4 µM (inactive) | 22.9 µM (inactive) | 27.4 µM (inactive) | 15.6 µM (inactive) | 17.7 µM (inactive) | 19 | 27.1 µM (inactive) | 35.1 µM (inactive) | 24 µM (inactive) | 
CCC(=O)Oc1ccc2c(c1)c(=O)c1c(NCCCN(C)C)ccc3nnn2c31 | 0.403 µM (active) | 0.201 µM (active) | 0.0914 µM (active) | 0.664 µM (active) | 1.04 µM (active) | 0.385 µM (active) | 1.03 µM (active) | 0.275 µM (active) | 3.86 µM (inactive) | 5.56 µM (inactive) | 2.79 µM (inactive) | < 0.0204 µM (active) | 1.71 µM (inactive) | 1.42 µM (inactive) | 0.127 µM (active) | 0.4 | 10.6 µM (inactive) | 0.0348 µM (active) |  | 2.77 µM (inactive)
Cc1ccc(S(=O)(=O)N/N=C2\CCC3(O)CC2(C)CCC2C3CC2(C)C)cc1 (centres undefined) | 43.8 µM (inactive) | > 100 µM (inactive) | 45.1 µM (inactive) | 37.2 µM (inactive) | 36.2 µM (inactive) | 31.8 µM (inactive) | 32.1 µM (inactive) | 33.4 µM (inactive) | 38.5 µM (inactive) | 20 µM (inactive) | 40.5 µM (inactive) | 85.9 µM (inactive) | 51.1 µM (inactive) | 42.7 µM (inactive) | > 100 µM (inactive) | 36.2 | 37.1 µM (inactive) | 19.3 µM (inactive) |  | 36.8 µM (inactive)
CC(C)N1CC2CN(Cc3ccccc3)CC(C1)C2=O | > 100 µM (inactive) | > 100 µM (inactive) | > 100 µM (inactive) | > 100 µM (inactive) | > 100 µM (inactive) | > 100 µM (inactive) | > 100 µM (inactive) | > 100 µM (inactive) | > 100 µM (inactive) | > 100 µM (inactive) | > 100 µM (inactive) | > 100 µM (inactive) | > 100 µM (inactive) | > 100 µM (inactive) | 89.1 µM (inactive) | > 100 | > 100 µM (inactive) | > 100 µM (inactive) | > 100 µM (inactive) | 
O=[N+]([O-])c1cccc(-c2csc(N/N=C3\NC/C(=C/c4ccc5c(c4)OCO5)S3)n2)c1 | 14.3 µM (inactive) |  | 21 µM (inactive) | 38.4 µM (inactive) | 33.8 µM (inactive) | 28.9 µM (inactive) | 50.7 µM (inactive) | 39.4 µM (inactive) | 30.4 µM (inactive) | 24.2 µM (inactive) | 40.2 µM (inactive) | 34.4 µM (inactive) | 40.8 µM (inactive) | 33.4 µM (inactive) | 35.4 µM (inactive) | 35.7 | 35.9 µM (inactive) | 33.5 µM (inactive) | 15.4 µM (inactive) | 15.2 µM (inactive)
CCOC(=O)[C@H](CO)NC1=C(Cl)C(=O)c2c(O)ccc(O)c2C1=O | > 10 µM (inactive) | 5.22 µM (inactive) | > 10 µM (inactive) | > 10 µM (inactive) | > 10 µM (inactive) | > 10 µM (inactive) | > 10 µM (inactive) | > 10 µM (inactive) | > 10 µM (inactive) | > 10 µM (inactive) | > 10 µM (inactive) | > 10 µM (inactive) | > 10 µM (inactive) | > 10 µM (inactive) | > 10 µM (inactive) | > 10 | > 10 µM (inactive) | > 10 µM (inactive) | > 10 µM (inactive) | 
